Assay results as given in patent US20250320138A1 (priority 2022, published 2025).
“And” between values parts separate entries of the source, which are not always exact repeats. Identical values can stand only once.

Key:
[1] = system: chlorine-resistant Methylobacterium strain; type: cell-based, Methylobacterium fujisawaense
[2] = system: chlorine-resistant Methylobacterium strain; type: cell-based, Methylobacterium fujisawaense; remark: listed apart in the source

With O=[O+][O-] [ozone] the bactericidal rate [1] was 0.0% and 9.4% and 2.1% and 5.0% and the “inner structure of cell body (electron microscope)” value [2] was “an organization is packed inside the cell body similarly to the blank”.
